Measurements published in US9958439B2, “Carbohydrate detection” (RICHTER LIFE SCIENCE DEVELOPMENT AB, priority 2012, dated 2018).
Like-named read-outs stand apart in the source and are kept apart here.

Assays:
[1] = for RFU change (Correlation analysis): probe-specific excitation λ, emission 545 nm
Experimental: (§1) The excitation spectrum of the probe was analyzed for wavelengths 300-500 nm with emission read at 545 nm.
(§2) 3 μM of each probe was applied to serial two fold dilutions of the insoluble carbohydrate. Respective probes were excited at wavelengths unique to each probe (specified in figure), and emission was read at 545 nm.
(§3) Serial dilutions of carbohydrate suspensions were prepared in dH2O. Concentrations ranging from 10 to 0.039 mg/ml was used for β-1,3-glucan, cellulose and chitin, whereas 5 to 0.019 mg/ml was used for sodium alginate, glucose, amylose, glycogen, cellulobiose, heparin, chondroitin sulfate A. 3 μM of each LCO probe was added to 1 ml aliquots of each concentration of carbohydrate, after which 100 μl was dispensed in triplicates into 96 well plates. Excitation spectra were collected by exciting the sample from 300 to 500 nm and detecting emission at 545 nm. Detection of carbohydrate is concluded when there is a reproducible change in λmax and/or RFU intensity with reference to the negative control. Data from three concentrations, as well as the negative control are shown for each carbohydrate as specified in respective figure.
(§4) The excitation wavelength (emission detected at 545 nm) selected for each LCO is either (1) the λmax, or (2) the excitation wavelength which suffers the lowest background. A linear regression analysis is performed to determine the relationship between the carbohydrate concentration and RFU.

[2] = Experimental: 3 μM of each probe was applied to serial two fold dilutions of the insoluble carbohydrate of which the concentration shown here are 5 mg/ml (_.), 2.5 mg/ml (. . . ), 1.25 mg/ml (__) and 0 mg/ml (_). The excitation spectrum of the probe was analyzed for wavelengths 300-500 nm with emission read at 545 nm.
as §2, §3, §4

[3] = for RFU change (Correlation analysis): probe-specific excitation λ, emission 545 nm; remark: listed apart in the source
Experimental: (§5) 3 μM of each probe was applied to serial two fold dilutions of the carbohydrate of which the concentration shown here are 5 mg/ml (_.), 2.5 mg/ml (. . . ) 1.25 mg/ml (__) and 0 mg/ml (_). The excitation spectrum of the probe was analyzed for wavelengths 300-500 nm with emission read at 545 nm.
(§6) 3 μM of each probe was applied to serial two fold dilutions of the carbohydrate. Respective probes were excited at wavelengths unique to each probe (specified in figure), and emission was read at 545 nm.
as §3, §4

[4] = for RFU change (Correlation analysis): probe-specific excitation λ, emission 545 nm; for Gradient Parameters (gradient of regression line) / Linear relationship / Quality of Gradient: linear regression
Experimental: 3 μM of each probe was applied to serial two fold dilutions of the carbohydrate of which the concentration shown here are 5 mg/ml (_.), 2.5 mg/ml (. . . ), 1.25 mg/ml (__) and 0 mg/ml (_). The excitation spectrum of the probe was analyzed for wavelengths 300-500 nm with emission read at 545 nm.
as §6, §3, §4

[5] = remark: listed apart in the source
Experimental: as §1, §6, §3, §4

[6] = remark: listed apart in the source
Experimental: as §5
3 μM of each probe was applied to serial two fold dilutions of the carbohydrate. Respective probes were excited at wavelengths unique to each probe (specified in figure), and emission was read at 545 nm. […] The mean increase in signal (_) with [Glucose] and the fitted regression line (__) is shown.
as §3, §4

[7] = Chitin 10-[…], 3 μM probe, spectral analysis, Excitation 300-500, Emission 545
[8] = cellulose concentration vs RFU, linear regression
[9] = chitin concentration vs RFU, linear regression
[10] = β-1,3-glucan concentration vs RFU, linear regression
[11] = sodium alginate concentration vs RFU, linear regression
[12] = Cellulobiose 5-0.019 mg/ml, 3 μM probe, spectral analysis, Excitation 300-500, Emission 545
[13] = amylose concentration vs RFU, linear regression
[14] = cellulobiose concentration vs RFU, linear regression
[15] = Glycogen 5-0.019 mg/ml, 3 μM probe, spectral analysis, Excitation 300-500, Emission 545
[16] = Chondroitin Sulfate A 5-0.019 mg/ml, 3 μM probe, spectral analysis, Excitation 300-500, Emission 545
[17] = Chondroitin Sulfate A concentration vs RFU, linear regression
[18] = glucose concentration vs RFU, linear regression

O=C(Cc1cc(-c2cccs2)sc1-c1ccc(-c2sc(-c3cccs3)cc2CC(=O)N[C@@H](Cc2ccc([O-])cc2)C(=O)[O-])s1)N[C@@H](Cc1ccc([O-])cc1)C(=O)[O-].[Na+].[Na+].[Na+].[Na+] [pHTA-Tyr, penta Hydrogen Thiophene Acetic acid Tyrosine]
RFU change (Correlation analysis) ([1]; Cellulose 10-[…], 3 μM probe): Unclear | RFU change (Signal deviation with increasing [Carbohydrate]) ([1]; Cellulose 10-[…], 3 μM probe, spectral analysis, Excitation 300-500, Emission 545): Unclear | RFU change (Correlation analysis) ([1]; Chitin 10-[…], 3 μM probe): Increases | RFU change (Signal deviation with increasing [Carbohydrate]) [1, 7]: Increases | λmax change [1, 7]: Redshift | carbohydrate can be detected and/or differentiated by the LCO ([1]; Chitin, conclusion from change in signal magnitude and/or shift in λmax): can be detected and/or differentiated | Gradient Parameters (gradient of regression line) [1, 8]: −51.4 ± 45.0 | Quality of Gradient [1, 8]: Horizontal | Gradient Parameters (gradient of regression line) [1, 9]: 972.3 ± 109.7 | Linear relationship [1, 9]: Significant | Quality of Gradient [1, 9]: Positive | Sensitivity ([1]; to cellulose): No | Sensitivity ([1]; to chitin): Yes | Sensitivity ([1]; to β-1,3-glucan): No | RFU change (Correlation analysis) ([1]; β-1,3-glucan 10-[…], 3 μM probe): Decrease | RFU change (Signal deviation with increasing [Carbohydrate]) ([1]; β-1,3-glucan 10-[…], 3 μM probe, spectral analysis, Excitation 300-500, Emission 545): Decrease | Gradient Parameters (gradient of regression line) [1, 10]: −53.2 ± 47.5 | Quality of Gradient [1, 10]: Horizontal | RFU change (Correlation analysis) ([2]; Sodium alginate 5-0.019 mg/ml, 3 μM probe, probe-specific excitation λ, emission 545 nm): Unclear | RFU change (Signal deviation with increasing [Carbohydrate]) ([2]; Sodium alginate 5-0.019 mg/ml, 3 μM probe, spectral analysis, Excitation 300-500, Emission 545): Increases | Gradient Parameters (gradient of regression line) [2, 11]: 30.9 ± 175.5 | Quality of Gradient [2, 11]: Horizontal | Sensitivity ([2]; to sodium alginate): No | RFU change (Correlation analysis) ([3]; Amylose 5-0.019 mg/ml, 3 μM probe): Unclear | RFU change (Signal deviation with increasing [Carbohydrate]) ([3]; Amylose 5-0.019 mg/ml, 3 μM probe, spectral analysis, Excitation 300-500, Emission 545): Unclear | RFU change (Correlation analysis) ([3]; Cellulobiose 5-0.019 mg/ml, 3 μM probe): Increases | RFU change (Signal deviation with increasing [Carbohydrate]) [3, 12]: Increases | λmax change [3, 12]: No change | carbohydrate can be detected and/or differentiated by the LCO ([3]; Cellulobiose, conclusion from change in signal magnitude and/or shift in λmax): can be detected and/or differentiated | Gradient Parameters (gradient of regression line) [3, 13]: −133.1 ± 128.5 | Quality of Gradient [3, 13]: Horizontal | Gradient Parameters (gradient of regression line) [3, 14]: 56.7 ± 16 | Linear relationship [3, 14]: Significant | Quality of Gradient [3, 14]: Positive | Sensitivity ([3]; to amylose): No | Sensitivity ([3]; to cellulobiose): Yes | RFU change (Correlation analysis) ([4]; Glycogen 5-0.019 mg/ml, 3 μM probe): Decreases | RFU change (Signal deviation with increasing [Carbohydrate]) [4, 15]: Decreases | λmax change [4, 15]: Redshift | carbohydrate can be detected and/or differentiated by the LCO ([4]; Glycogen, conclusion from change in signal magnitude and/or shift in λmax): can be detected and/or differentiated | RFU change (Correlation analysis) ([4]; Heparin 5-0.019 mg/ml, 3 μM probe): Increases | RFU change (Signal deviation with increasing [Carbohydrate]) ([4]; Heparin 5-0.019 mg/ml, 3 μM probe, spectral analysis, Excitation 300-500, Emission 545): Increases | Gradient Parameters (gradient of regression line) ([4]; glycogen concentration vs RFU): −2062 ± 216.6 | Linear relationship ([4]; glycogen concentration vs RFU): Significant | Quality of Gradient ([4]; glycogen concentration vs RFU): Negative | Gradient Parameters (gradient of regression line) ([4]; heparin concentration vs RFU): 74.5 ± 80.7 | Linear relationship ([4]; heparin concentration vs RFU): Not Significant | Quality of Gradient ([4]; heparin concentration vs RFU): Horizontal | Sensitivity ([4]; to glycogen): Yes | Sensitivity ([4]; to heparin): No | RFU change (Correlation analysis) ([5]; Chondroitin Sulfate A 5-0.019 mg/ml, 3 μM probe, probe-specific excitation λ, emission 545 nm): Increases | RFU change (Signal deviation with increasing [Carbohydrate]) [5, 16]: Increases | λmax change [5, 16]: No change | Gradient Parameters (gradient of regression line) [5, 17]: 163.3 ± 61.5 | Linear relationship [5, 17]: Significant | Quality of Gradient [5, 17]: Positive | carbohydrate can be detected and/or differentiated by the LCO ([5]; Chondroitin sulfate A, conclusion from change in signal magnitude and/or shift in λmax): can be detected and/or differentiated | Sensitivity ([5]; to Chondroitin Sulfate A): Yes | RFU change (Correlation analysis) ([6]; Glucose 5-0.019 mg/ml, 3 μM probe, probe-specific excitation λ, emission 545 nm): Increases | RFU change (Signal deviation with increasing [Carbohydrate]) ([6]; Glucose 5-0.019 mg/ml, 3 μM probe, spectral analysis, Excitation 300-500, Emission 545): Increases | carbohydrate can be detected and/or differentiated by the LCO ([6]; Glucose, conclusion from change in signal magnitude and/or shift in λmax): can be detected and/or differentiated | Gradient Parameters (gradient of regression line) [6, 18]: 799.4 ± 95.1 | Linear relationship [6, 18]: Significant | Quality of Gradient [6, 18]: Positive | Sensitivity ([6]; to glucose): Yes
